This note sets out measurements from patent US10858360B2, “Tricyclic gyrase inhibitors” (priority 2011, dated 2020).

In brackets after ≈: the same amount, converted by molar mass.

In assay [1] the test system is S. aureus ATCC 13709. The experiment in a line: MIC, S. aureus ATCC 13709 (Alamar Blue broth microdilution). In kind it is cell-based. To be noted: Alamar Blue read after overnight incubation at 35° C.; for MIC: Staphylococcus aureus, ATCC13709, S. aureus; for MIC Sa: S. aureus. For orientation: The colour change of resazurin is a common sign of viable cells or microbes.

In assay [2] the test system is E. coli ATCC 25922. The experiment in a line: MIC, E. coli ATCC 25922. In kind it is cell-based. To be noted: Alamar Blue read after overnight incubation at 35° C.; for MIC: Escherichia coli, ATCC25922, E. coli; for MIC Ec: E. coli.

On to `CNc1cc(F)cc2c1[nH]c1nc(Oc3cnc(SC)nc3)nc(N3CCC4(CC4N)C3)c12` (stereo not drawn) [4.195], for which the minimal inhibitory concentration (MIC) in assay [1] was ≤ 0.5 µg/mL; in assay [2], 1 µg/mL (≈ 2.14 µM).

With `CNc1cc(F)cc2c1[nH]c1nc(Oc3cnc(SC)nc3)nc(N3CC4CC(N)C4C3)c12` (stereo not drawn) [4.196], the MIC in assay [1] and in assay [2] was ≤ 0.5 µg/mL each time.

`CNc1cc(F)cc2c1[nH]c1nc(Oc3cnc(SC)nc3)nc(N3CC4C(CN)C4C3)c12` (stereo not drawn) [4.197]: in assay [1], the “MIC Sa” value is ≤0.5 µg/mL. In assay [2], the “MIC Ec” value was ≤0.5 µg/mL.

With `CNc1cc(F)cc2c1[nH]c1nc(Oc3cnc(SC)nc3)nc(N3CC4CCNC4C3)c12` (stereo not drawn) [4.198], the MIC in assay [1] and in assay [2] was ≤ 0.5 µg/mL in each case.

Take `CNc1cc(F)cc2c1[nH]c1nc(Oc3cnc(SC)nc3)nc(N3CCC(N)C3)c12` (stereo not drawn) [4.199]: the “MIC Sa” value in assay [1] was ≤0.5 µg/mL. Also, the “MIC Ec” value in assay [2] is ≤0.5 µg/mL.

As for `CNc1cc(F)cc2c1[nH]c1nc(Oc3cnc(SC)nc3)nc(N3CC4CCC(N)C4C3)c12` (stereo not drawn) [4.200], the “MIC Sa” value in assay [1] was ≤0.5 µg/mL. For the same molecule, the “MIC Ec” value in assay [2] was ≤0.5 µg/mL.

Turning to `CNc1cc(F)cc2c1[nH]c1nc(Oc3cnc(SC)nc3)nc(N3CC4C[C@@H](N)C4C3)c12` (stereo partly drawn) [4.201], the minimum inhibitory concentration (MIC) in assay [1] and in assay [2] was ≤ 0.5 µg/mL throughout.

Turning to `CNc1cc(F)cc2c1[nH]c1nc(Oc3cnc(SC)nc3)nc(N3CCC4(C[C@H]4N)C3)c12` (stereo partly drawn) [4.203], the “MIC Sa” value in assay [1] is ≤0.5 µg/mL. In addition, the “MIC Ec” value in assay [2] is ≤0.5 µg/mL.

As for `CNc1cc(F)cc2c1[nH]c1nc(Oc3cnc(SC)nc3)nc(N3C[C@H]4C[C@@H]3C[C@H]4N)c12` [4.204], the “MIC Sa” value in assay [1] was ≤0.5 µg/mL. In assay [2], the “MIC Ec” value is ≤0.5 µg/mL.

Turning to `CNc1cc(F)cc2c1[nH]c1nc(Oc3cncc(-c4cncnc4)c3)nc(N3CC4C(N)C4C3)c12` (stereo not drawn) [4.205], the MIC in assay [1] and in assay [2] was ≤ 0.5 µg/mL each time.

Turning to `CNc1cc(F)cc2c1[nH]c1nc(Oc3cncc(-c4cn[nH]c4)c3)nc(N3CC4C(N)C4C3)c12` (stereo not drawn) [4.206], the MIC in assay [1] is ≤ 0.5 µg/mL; in assay [2] it was 4 µg/mL (≈ 8.48 µM).

As to `CNc1cc(F)cc2c1[nH]c1nc(Oc3cnc(N(C)C)nc3)nc(N3CCC(N)C3)c12` (stereo not drawn) [4.207], the “MIC Sa” value in assay [1] was ≤0.5 µg/mL. Also, the “MIC Ec” value in assay [2] is ≤0.5 µg/mL.

As to `CNc1cc(F)cc2c1[nH]c1nc(Oc3cnc(N(C)C)nc3)nc(N3CC4C(N)C4C3)c12` (stereo not drawn) [4.208], the MIC in assay [1] and in assay [2] was ≤ 0.5 µg/mL in each case.

In the case of `CNc1cc(F)cc2c1[nH]c1nc(Oc3cnc(N(C)C)nc3)nc(N3C[C@H](N)C4(CC4)C3)c12` [4.209], the MIC in assay [1] and in assay [2] was ≤ 0.5 µg/mL in each case.

For the molecule `CNc1cc(F)cc2c1[nH]c1nc(Oc3cncc(-c4nnn(C)n4)c3)nc(N3CC4C(N)C4C3)c12` (stereo not drawn) [4.210], in assay [1], the “MIC Sa” value was ≤0.5 µg/mL. Moreover, the “MIC Ec” value in assay [2] stood at 1 µg/mL (≈ 2.05 µM).

As to `CNc1cc(F)cc2c1[nH]c1nc(Oc3cnc(N4CCOCC4)nc3)nc(N3CC4C(N)C4C3)c12` (stereo not drawn) [4.211], the “MIC Sa” value in assay [1] came out at 16 µg/mL (≈ 32.6 µM). For the same molecule, the “MIC Ec” value in assay [2] is >16 µg/mL.

Regarding `CNc1cc(F)cc2c1[nH]c1nc(Oc3cnc(N4CCOCC4)nc3)nc(N3CCC(N)C3)c12` (stereo not drawn) [4.212], the “MIC Sa” value in assay [1] was ≤0.5 µg/mL. The “MIC Ec” value in assay [2] is ≤0.5 µg/mL.

For `CNc1cc(F)cc2c1[nH]c1nc(Oc3cnc(N4CCOCC4)nc3)nc(N3CC(N)C4(CC4)C3)c12` (stereo not drawn) [4.213], the “MIC Sa” value in assay [1] was ≤0.5 µg/mL. For the same molecule, in assay [2], the “MIC Ec” value was determined as 1 µg/mL (≈ 1.98 µM).

With `CNc1cc(F)cc2c1[nH]c1nc(Oc3cnc(N4CCOCC4)nc3)nc(N3CCC4(CC4N)C3)c12` (stereo not drawn) [4.214], the figures for the MIC in assay [1] and in assay [2] were ≤ 0.5 µg/mL and 2 µg/mL (≈ 3.96 µM), respectively.

`CNc1cc(F)cc2c1[nH]c1nc(Oc3cnc(N4CCOCC4)nc3)nc(N3CCC(CN)C3)c12` (stereo not drawn) [4.215]: the results for the MIC in assay [1] and in assay [2] were ≤ 0.5 µg/mL and 4 µg/mL (≈ 8.1 µM), respectively.

In the case of `CNc1ncc(Oc2nc(N3CC(N)C4(CC4)C3)c3c(n2)[nH]c2c(NC)cc(F)cc23)cn1` (stereo not drawn) [4.216], the “MIC Sa” value in assay [1] is ≤0.5 µg/mL. For the same molecule, in assay [2], the “MIC Ec” value is ≤0.5 µg/mL.

On to `CNc1ncc(Oc2nc(N3CC4C(N)C4C3)c3c(n2)[nH]c2c(NC)cc(F)cc23)cn1` (stereo not drawn) [4.218], for which the MIC in assay [1] and in assay [2] was ≤ 0.5 µg/mL in each case.

In the case of `CNc1ncc(Oc2nc(N3CCC(N)C3)c3c(n2)[nH]c2c(NC)cc(F)cc23)cn1` (stereo not drawn) [4.219], the “MIC Sa” value in assay [1] is ≤0.5 µg/mL. For the same molecule, the “MIC Ec” value in assay [2] was ≤0.5 µg/mL.

`CNc1ncc(Oc2nc(N3CCC4(CC4N)C3)c3c(n2)[nH]c2c(NC)cc(F)cc23)cn1` (stereo not drawn) [4.220]: the MIC in assay [1] and in assay [2] was ≤ 0.5 µg/mL in each case.

As for `CNc1ncc(Oc2nc(N3CC4CC(N)C4C3)c3c(n2)[nH]c2c(NC)cc(F)cc23)cn1` (stereo not drawn) [4.221], the minimal inhibitory concentration (MIC) was ≤ 0.5 µg/mL in assay [1] and 2 µg/mL (≈ 4.45 µM) in assay [2].

Turning to `CNc1cc(F)cc2c1[nH]c1nc(Oc3cnc(NC4CC4)nc3)nc(N3CCC(N)C3)c12` (stereo not drawn) [4.222], the “MIC Sa” value in assay [1] was ≤0.5 µg/mL. For the same molecule, the “MIC Ec” value in assay [2] is ≤0.5 µg/mL.

`CNc1cc(F)cc2c1[nH]c1nc(Oc3cnc(NC4CC4)nc3)nc(N3CC4C(N)C4C3)c12` (stereo not drawn) [4.223]: the MIC in assay [1] and in assay [2] was ≤ 0.5 µg/mL each time.

The MIC is the lowest concentration found to suppress growth. A lower MIC goes with greater potency.
